Laboratory results as given in the supplement of paper PMC10307832.

Experiments:
Assay in all cases: relative viability (nuclei count vs DMSO), 5 days (fraction); higher = more cells survive
[1] = compound: OCc1c[nH]c2ccccc12 [Indole-3-carbinol] + CS(=O)(=O)N1CCN(Cc2cc3nc(-c4cccc5[nH]ncc45)nc(N4CCOCC4)c3s2)CC1 [Pictilisib] (partner 1 µM)
Method in brief: (§1)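 Values are medians from duplicate plates. Each reflects relative viability, defined as the nuclei count of treated wells over that of vehicle wells. Lung cancer cell lines in 1536-well plates were pin-tool dosed one day after seeding with one drug alone or with a fixed anchor-drug dose plus five library-drug doses (not always all listed) in √10 steps, then fixed, stained and imaged at 4× after 5 days.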

[2] = compound: OCc1c[nH]c2ccccc12 [Indole-3-carbinol] + COc1cccc2cc(-c3nc([C@H]4CC[C@H](C(=O)O)CC4)n4ncnc(N)c34)[nH]c12 [OSI-027] (partner 0.5 µM)
Method in brief: as §1

[3] = compound: OCc1c[nH]c2ccccc12 [Indole-3-carbinol] + CC1(C)CCC(c2ccc(Cl)cc2)=C(CN2CCN(c3ccc(C(=O)NS(=O)(=O)c4ccc(N[C@H](CCN5CCOCC5)CSc5ccccc5)c(S(=O)(=O)C(F)(F)F)c4)cc3)CC2)C1 [Navitoclax] (partner 0.5 µM)
Method in brief: as §1

[4] = compound: OCc1c[nH]c2ccccc12 [Indole-3-carbinol] + CC(C)C[C@H](NC(=O)[C@H](Cc1ccccc1)NC(=O)c1cnccn1)B(O)O [Bortezomib] (partner 0.002 µM)
Method in brief: as §1

[5] = compound: OCc1c[nH]c2ccccc12 [Indole-3-carbinol] + CS(=O)(=O)CCNCc1ccc(-c2ccc3ncnc(Nc4ccc(OCc5cccc(F)c5)c(Cl)c4)c3c2)o1 [Lapatinib] (partner 2 µM)
Method in brief: as §1

Cell Line	relative viability ([1]; first compound 0.253 µM)	relative viability ([1]; first compound 0.8 µM)	relative viability ([1]; first compound 2.53 µM)	relative viability ([1]; first compound 8 µM)	relative viability ([2]; first compound 0.253 µM)	relative viability ([2]; first compound 0.8 µM)	relative viability ([2]; first compound 2.53 µM)	relative viability ([2]; first compound 8 µM)	relative viability ([3]; first compound 0.253 µM)	relative viability ([3]; first compound 0.8 µM)	relative viability ([3]; first compound 2.53 µM)	relative viability ([3]; first compound 8 µM)	relative viability ([4]; first compound 0.253 µM)	relative viability ([4]; first compound 0.8 µM)	relative viability ([4]; first compound 2.53 µM)	relative viability ([4]; first compound 8 µM)	relative viability ([5]; first compound 0.253 µM)	relative viability ([5]; first compound 0.8 µM)	relative viability ([5]; first compound 2.53 µM)	relative viability ([5]; first compound 8 µM)
NCI-H1355	0.324	0.415	0.435	0.428	0.403	0.44	0.363	0.396	0.967	0.919	0.858	0.896	1.25	1.18	1.2	1.17	1.08	0.981	0.975	0.887
COR-L 105	0.371	0.374	0.432	0.382	0.751	0.586	0.73	0.785	0.718	0.701	0.821	0.631	0.847	0.733	0.812	0.806	0.339	0.281	0.353	0.343
NCI-H2228	0.514	0.374	0.349	0.506	0.477	0.724	0.597	0.651	0.845	1.06	0.91	0.674	1.17	0.876	0.914	0.911	1.12	1.17	1.2	1.32
NCI-H838	0.537	0.431	0.459	0.431	0.344	0.311	0.416	0.386	1.18	1.14	1.18	1.08	0.842	0.789	0.856	0.913	1.09	0.805	0.959	0.949
EMC-BAC-2	0.532	0.453	0.555	0.359	0.32	0.356	0.386	0.359	1.16	1.21	1.11	1.04	0.994	1.01	1.08	1.02	0.879	0.76	0.852	0.813
LU99A	0.318	0.367	0.302	0.35	0.307	0.355	0.291	0.284	0.802	0.847	0.832	0.73	1.31	1.11	1.06	1.02	0.893	0.968	0.973	0.89
PC-3 [JPC-3]	0.817	0.801	0.649	0.73	0.714	0.741	0.704	0.745	0.8	0.804	0.823	0.783	0.851	0.89	0.863	0.741	0.462	0.441	0.399	0.439
NCI-H596	0.368	0.416	0.364	0.411	0.759	0.761	0.726	0.866	0.977	1.02	0.921	0.826	0.996	0.773	0.987	1.01	1.05	0.779	0.936	0.985
LCLC-97TM1	0.139	0.224	0.177	0.223	0.381	0.527	0.386	0.668	0.408	0.387	0.499	0.465	0.651	0.686	0.778	0.447	0.599	0.935	0.911	0.582
NCI-H1993	0.795	0.802	0.808	0.806	0.513	0.516	0.63	0.468	0.958	1.1	0.89	1.01	1.09	1.38	1.14	1.17	0.827	0.839	0.791	0.773
HARA	0.299	0.573	0.573	0.407	0.572	0.436	0.597	0.556	1.18	1.17	1.14	1.16	1.2	1.06	1.11	1.06	0.932	0.737	0.711	0.654
NCI-H460	0.479	0.271	0.373	0.337	0.594	0.621	0.632	0.6	1.2	1.46	1.08	1	1.14	1.14	1.11	1.03	1.09	0.993	0.983	0.9
NCI-H1650	0.521	0.399	0.547	0.6	0.597		0.601	0.647	1.32	1.16	1.26	1.1	0.19	0.192	0.207	0.194	0.892	0.561	0.875	0.716
EKVX	0.43	0.449	0.418	0.402	0.719	0.74	0.731	0.633	1.13	1.01	0.983	0.873	1.24	1.1	1.12	1.04	0.203	0.18	0.207	0.198
NCI-H1755	0.401	0.318	0.442	0.424	0.761	0.664	0.822	0.699	1.02	1.01	0.975	0.984	1.02	0.939	0.976	0.995	1.06	0.978	1.07	1.03
NCI-H1792	0.217	0.221	0.257	0.245	0.733	0.695	0.726	0.692	0.655	0.619	0.737	0.644	0.965	0.89	1.03	0.934	0.913	0.945	0.903	0.93
